Measured values reported in ChEMBL document CHEMBL1127656, “Articulating a pharmacophore driven synthetic strategy: Discovery of a potent substance P antagonist” (Bioorg Med Chem Lett, 1994).

Target: Substance-P receptor (Homo sapiens, UniProt P25103)
Test: In vitro binding affinity towards human NK-1 receptor in IM-9 cells using [3H]SP of substance P antagonist
Format: cell-based

Substance-P receptor, sequence (P25103 whole entry): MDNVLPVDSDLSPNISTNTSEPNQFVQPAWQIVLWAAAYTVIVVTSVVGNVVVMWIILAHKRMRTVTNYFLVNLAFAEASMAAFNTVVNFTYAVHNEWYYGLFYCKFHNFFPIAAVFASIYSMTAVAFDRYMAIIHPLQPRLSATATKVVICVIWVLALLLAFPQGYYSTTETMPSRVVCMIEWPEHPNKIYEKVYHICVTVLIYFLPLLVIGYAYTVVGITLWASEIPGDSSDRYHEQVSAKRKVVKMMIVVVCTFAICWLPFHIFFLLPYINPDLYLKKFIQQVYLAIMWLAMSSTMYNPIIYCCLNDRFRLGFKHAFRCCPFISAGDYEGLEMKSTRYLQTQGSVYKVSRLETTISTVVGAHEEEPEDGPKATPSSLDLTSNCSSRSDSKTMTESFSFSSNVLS

COc1ccccc1CN[C@H]1[C@@H]2CCC[C@@H]2N[C@H]1c1ccccc1 (racemic)
Ki: 2.4 nM
